# Tested on: DNA-PK null SCID mouse cell line
# Assay: Cell viability following irradiation (CellTiter-Glo)
# Assay type: cell-based
# Settings: single agent or in combination with radiation
# Description: (§1) To evaluate the radiosensitizing effects of compounds of the invention in combination with ionizing radiation (IR), a broad panel of cell lines across multiple tumor types and genetic backgrounds were tested. Cells were incubated with DMSO or compound 578 for 30 minutes and then exposed to various doses of radiation (0, 0.5, 1, 2, 4, 6, 8, and 16 Gy). Cell viability was assessed at 6 days using CellTiter-Glo® (Promega, Inc).
row,Compound,effect on cell viability
1,"CNC(=O)c1ccnc2c([C@H](C)CNc3cc(-c4cnc(C)nc4)ncn3)cccc12 [Compound 578, (S)—N-methyl-8-(1-((2′-methyl-[4,5′-bipyrimidin]-6-yl)amino)propan-2-yl)quinoline-4-carboxamide]",minimal effect on cell viability

# Tested on: H2009
# Assay: as above
# Assay type: cell-based
# Settings: compound 2.1 μM + IR, 6 days, DMSO 7.6 Gy
# Description: as §1
row,Compound,EC50 IR [Gy]
1,"CNC(=O)c1ccnc2c([C@H](C)CNc3cc(-c4cnc(C)nc4)ncn3)cccc12 [Compound 578, (S)—N-methyl-8-(1-((2′-methyl-[4,5′-bipyrimidin]-6-yl)amino)propan-2-yl)quinoline-4-carboxamide]",2.5

# Molecular target: DNA-PK (Homo sapiens, UniProt P78527)
# Assay: DNA-PK inhibition assay (radiometric, 33P-ATP)
# Assay type: biochemical
# Settings: 100 μM ATP, competitive tight-binding fit
# Method in brief: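 Approx. 6 nM DNA-PK with 10 µg/mL sheared dsDNA, 0.8 mg/mL peptide substrate and 100 µM 33P-ATP in HEPES pH 7.5, 10 mM MgCl2; 45 min, phosphoric acid quench. Phosphopeptide captured on filter plates and counted by scintillation; Ki from a competitive tight-binding model fit.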
row,Compound,Ki [nM]
1,"CNC(=O)c1ccnc2c([C@H](C)CNc3cc(-c4cnc(C)nc4)ncn3)cccc12 [Compound 578, (S)—N-methyl-8-(1-((2′-methyl-[4,5′-bipyrimidin]-6-yl)amino)propan-2-yl)quinoline-4-carboxamide]",< 30
2,CNC(=O)c1c(F)cnc2c([C@H](C)CNc3cc(-c4ccc(NC5CC5)nc4)ncn3)cccc12 [Compound 921],< 30
3,CCNc1ccc(-c2cc(NC[C@@H](C)c3ccc(F)c4c(C(=O)NC)ccnc34)ncn2)cn1 [Compound 922],< 30
4,CNC(=O)c1ccnc2c([C@H](C)CNc3cc(-c4cnc(C#N)c(OC)c4)ncn3)ccc(F)c12 [Compound 923],< 30
5,CNC(=O)c1ccnc2c([C@H](C)CNc3cc(-c4cnc(C#N)c(OC)c4)ncn3)cccc12 [Compound 924],< 30
6,CNC(=O)c1ccnc2c([C@H](C)CNc3cc(-c4ccc(C(O)C(C)C)nc4)ncn3)cccc12 (some centres unmarked) [Compound 925],< 30
7,CNC(=O)c1ccnc2c([C@H](C)CNc3cc(-c4ccc(C(O)C(C)C)nc4)ncn3)ccc(F)c12 (some centres unmarked) [Compound 926],< 30
8,CNC(=O)c1c(F)cnc2c([C@H](C)CNc3cc(-c4ccc(C(O)C(C)C)nc4)ncn3)cccc12 (some centres unmarked) [Compound 927],< 30
9,CNC(=O)c1ccnc2c([C@H](C)CNc3cc(-c4cnc(C(C)(C)OC)nc4)ncn3)cccc12 [Compound 928],< 30
10,CNC(=O)c1ccnc2c([C@H](C)CNc3cc(-c4cnc(C(C)(C)OC)nc4)ncn3)ccc(F)c12 [Compound 929],< 30
11,CNC(=O)c1c(F)cnc2c([C@H](C)CNc3cc(-c4cnc(C(C)(C)OC)nc4)ncn3)cccc12 [Compound 930],< 30
12,CCNc1ncc(-c2cc(NC[C@@H](C)c3ccc(F)c4c(C(=O)NC)ccnc34)ncn2)cn1 [Compound 931],< 30
13,CCOc1ccc(-c2cc(NC[C@@H](C)c3cccc4c(C(=O)NC)c(F)cnc34)ncn2)cn1 [Compound 932],< 30
14,CCOc1ccc(-c2cc(NC[C@@H](C)c3cccc4c(C(=O)NC)ccnc34)ncn2)cn1 [Compound 933],< 30
15,CCOc1ccc(-c2cc(NC[C@@H](C)c3ccc(F)c4c(C(=O)NC)ccnc34)ncn2)cn1 [Compound 934],< 30
16,CNC(=O)c1ccnc2c([C@H](C)CNc3cc(-c4cnc5c(c4)OCCO5)ncn3)cccc12 [Compound 935],< 30
17,CNC(=O)c1ccnc2c([C@H](C)CNc3cc(-c4cnc5c(c4)OCCO5)ncn3)ccc(F)c12 [Compound 936],< 30
18,CNC(=O)c1c(F)cnc2c([C@H](C)CNc3cc(-c4cnc5c(c4)OCCO5)ncn3)cccc12 [Compound 937],< 30
19,CNC(=O)c1c(F)cnc2c([C@H](C)CNc3cc(-c4cnc(OC(C)C)nc4)ncn3)cccc12 [Compound 938],< 30
20,CNC(=O)c1ccnc2c([C@H](C)CNc3cc(-c4ccc(C5(N)CC5)nc4)ncn3)cccc12 [Compound 939],< 30

row,Compound,Ki [nM]
1,CNC(=O)c1ccnc2c([C@H](C)CNc3cc(-c4ccc(C5(N)CC5)nc4)ncn3)ccc(F)c12 [Compound 940],< 30
2,CNC(=O)c1c(F)cnc2c([C@H](C)CNc3cc(-c4ccc(C5(N)CC5)nc4)ncn3)cccc12 [Compound 941],< 30
3,CCNc1ncc(-c2cc(NC[C@@H](C)c3cccc4c(C(=O)NC)ccnc34)ncn2)cn1 [Compound 942],< 30
4,CNC(=O)c1ccnc2c([C@H](C)CNc3cc(-c4ccc(NC5CC5)nc4)ncn3)ccc(F)c12 [Compound 943],< 30
5,CNC(=O)c1ccnc2c([C@H](C)CNc3cc(-c4cnc(OC)c(COC)c4)ncn3)cccc12 [Compound 944],< 30
6,CNC(=O)c1ccnc2c([C@H](C)CNc3cc(-c4cnc(OC)c(C)c4)ncn3)cccc12 [Compound 945],< 30
7,CNC(=O)c1ccnc2c([C@H](C)CNc3cc(-c4cnc(N5CCOCC5)c(C#N)c4)ncn3)cccc12 [Compound 946],< 30
8,CNC(=O)c1ccnc2c([C@H](C)CNc3cc(-c4cnc(OC(C)C)c(C)c4)ncn3)cccc12 [Compound 947],< 30
9,CNC(=O)c1ccnc2c([C@H](C)CNc3cc(-c4cnc(N)c(C)c4)ncn3)cccc12 [Compound 948],< 30
10,CNC(=O)c1ccnc2c([C@H](C)CNc3cc(-c4cnc(OC)c(Cl)c4)ncn3)cccc12 [Compound 949],< 30
11,CCOc1ncc(-c2cc(NC[C@@H](C)c3cccc4c(C(=O)NC)ccnc34)ncn2)cc1C [Compound 950],< 30
12,CNC(=O)c1ccnc2c([C@H](C)CNc3cc(-c4cnc(F)c(C)c4)ncn3)cccc12 [Compound 951],< 30
13,CNC(=O)c1ccnc2c([C@H](C)CNc3cc(-c4cnc5c(c4)COC5)ncn3)cccc12 [Compound 952],< 30
14,CCc1cc(-c2cc(NC[C@@H](C)c3cccc4c(C(=O)NC)ccnc34)ncn2)cc(CC)n1 [Compound 953],< 30
15,CNC(=O)c1ccnc2c([C@H](C)CNc3cc(-c4cnc5c(c4)CCN5)ncn3)cccc12 [Compound 954],< 30
16,CNC(=O)c1ccnc2c([C@H](C)CNc3cc(-c4cnc(NC)c(C#N)c4)ncn3)cccc12 [Compound 955],< 30
17,CNC(=O)c1ccnc2c([C@H](C)CNc3cc(-c4cncc(CO)c4)ncn3)cccc12 [Compound 956],< 30
18,CNC(=O)c1ccnc2c([C@H](C)CNc3cc(-c4cnc(C(F)(F)F)nc4)ncn3)cccc12 [Compound 957],< 30
19,CNC(=O)c1ccnc2c([C@H](C)CNc3cc(-c4ccc(-c5nnnn5C)nc4)ncn3)cccc12 [Compound 958],< 30
20,CNC(=O)c1ccnc2c([C@H](C)CNc3cc(-c4ccc(OC(C)C)nc4)ncn3)cccc12 [Compound 959],< 30

row,Compound,Ki [nM]
1,CNC(=O)c1ccnc2c([C@H](C)CNc3cc(-c4cncc(-c5nnco5)c4)ncn3)cccc12 [Compound 960],< 30
2,CNC(=O)c1ccnc2c([C@H](C)CNc3cc(-c4cnc(NC)c(C)c4)ncn3)cccc12 [Compound 961],< 30
3,CCOc1cc(-c2cc(NC[C@@H](C)c3cccc4c(C(=O)NC)ccnc34)ncn2)ccn1 [Compound 962],< 30
4,CNC(=O)c1c(F)cnc2c([C@H](C)CNc3cc(-c4cncc(C#N)c4)ncn3)cccc12 [Compound 963],< 30
5,CNC(=O)c1c(F)cnc2c([C@H](C)CNc3cc(-c4cnc5c(c4)COC5)ncn3)cccc12 [Compound 966],< 30
6,CNC(=O)c1ccnc2c([C@H](C)CNc3cc(-c4cnc5c(c4)COC5)ncn3)ccc(F)c12 [Compound 967],< 30
7,CNC(=O)c1c(F)cnc2c([C@H](C)CNc3cc(-c4cnnc(C)c4)ncn3)cccc12 [Compound 968],< 30
8,CNC(=O)c1ccnc2c([C@H](C)CNc3cc(-c4cnnc(C)c4)ncn3)ccc(F)c12 [Compound 969],< 30
9,CNC(=O)c1ccnc2c([C@H](C)CNc3cc(-c4cnc(N)c(CO)c4)ncn3)cccc12 [Compound 970],< 30
10,"CNC(=O)c1ncnc2c([C@H](C)CNc3cc(-c4ccc(C)nc4)ncn3)cccc12 [Compound 971, (S)—N-methyl-8-(1-((6-(6-methylpyridin-3-yl)pyrimidin-4-yl)amino)propan-2-yl)quinazoline-4-carboxamide]",< 30
11,CNC(=O)c1ccnc2c([C@H](C)CNc3cc(-c4cnc(C)c(F)c4)ncn3)cccc12 [Compound 972],< 30
12,CNC(=O)c1c(F)cnc2c([C@H](C)CNc3cc(-c4cnc(C)c(F)c4)ncn3)cccc12 [Compound 973],< 30
13,CNC(=O)c1ccnc2c([C@H](C)CNc3cc(-c4cnc(C)c(F)c4)ncn3)ccc(F)c12 [Compound 974],< 30
14,CNC(=O)c1ccnc2c([C@H](C)CNc3cc(-c4ccc(NCC(F)F)nc4)ncn3)cccc12 [Compound 975],< 30
15,CNC(=O)c1ncnc2c([C@H](C)CNc3cc(-c4cnc(C)nc4)ncn3)cccc12 [Compound 976],< 30
16,CCNc1ncc(-c2cc(NC[C@@H](C)c3cccc4c(C(=O)NC)c(F)cnc34)ncn2)cn1 [Compound 978],< 30
17,CCNc1ccc(-c2cc(NC[C@@H](C)c3cccc4c(C(=O)NC)c(F)cnc34)ncn2)cn1 [Compound 979],< 30
18,CNC(=O)c1c(F)cnc2c([C@H](C)CNc3cc(-c4cnc(OC5CCC5)nc4)ncn3)cccc12 [Compound 981],< 30
19,CNC(=O)c1ccnc2c([C@H](C)CNc3cc(-c4cnc(OC5CCC5)nc4)ncn3)ccc(F)c12 [Compound 982],< 30
20,CNC(=O)c1ccnc2c([C@H](C)CNc3cc(-c4cnc(OC(C)C)nc4)ncn3)ccc(F)c12 [Compound 983],< 30
